The values below come from publication PMC11748363, “Antimicrobial and Antiproliferative Properties of 2‐Phenyl‐N‐(Pyridin‐2‐yl)acetamides” (Chemical Biology & Drug Design, 2025).

For test [1], the system named is Mycolicibacterium aurum DSM 43999. The test is described as follows: Antimycobacterial microdilution broth MIC (resazurin), M. aurum. The conditions noted are these: DSM43999, read-out: MIC M. aurum (μg/mL). It is filed as cell-based. In general terms: Dilution methods test growth across graded concentrations, often in twofold steps.
Test [2] deals with Mycobacterium tuberculosis H37Ra. The test is described as follows: Antimycobacterial microdilution broth MIC (resazurin), Mtb H37Ra. It is filed as cell-based. The conditions noted are these: Mycobacterium tuberculosis, H37RA.
In test [3] the test system is Mycolicibacterium smegmatis DSM 43465. The test is described as follows: Antimycobacterial microdilution broth MIC (resazurin), M. smegmatis. Format: cell-based. The conditions noted are these: DSM43465, read-out: MIC M. smegmatis (μg/mL).
Test [4] concerns Trichophyton interdigitale CCM 8377, ATCC 9533. The test is described as follows: Antifungal microdilution broth MIC, TI. The conditions noted are these: Trichophyton interdigitale, ATCC9533|CCM8377, 48 h; for MIC: read-out: MIC visual detection, TI.
The test system of test [5] is Aspergillus flavus CCM 8363. The test can be described thus: Antifungal microdilution broth MIC, AFla. Conditions: CCM8363, 48 h; for MIC: read-out: MIC visual detection, AFla.
The subject of test [6] is Candida albicans CCM 8320, ATCC 24433. The test can be described thus: Antifungal microdilution broth MIC, CA. Conditions: for MIC: 24 h, read-out: MIC visual detection, CA; for IC90: ATCC24433|CCM8320, 24 h.
In test [7] the test system is Candida krusei CCM 8271, ATCC 6258. The test is described as follows: Antifungal microdilution broth MIC, CK. Conditions: Pichia kudriavzevii; for MIC: 24 h, read-out: MIC visual detection, CK; for IC90: ATCC6258|CCM8271, 24 h.
For test [8], the system named is Aspergillus fumigatus ATCC 204305. The test can be described thus: Antifungal microdilution broth MIC, AF. The conditions noted are these: ATCC204305, 48 h; for MIC: read-out: MIC visual detection, AF.
Test [9] concerns Candida parapsilosis CCM 8260, ATCC 22019. The test can be described thus: Antifungal microdilution broth MIC, CP. Conditions: Lodderomyces parapsilosis, ATCC22019|CCM8260, 24 h; for MIC: read-out: MIC visual detection, CP.
The test system of test [10] is Lichtheimia corymbifera CCM 8077. The test can be described thus: Antifungal microdilution broth MIC, LC. The conditions noted are these: CCM8077, 48 h; for MIC: read-out: MIC visual detection, LC.
The subject of test [11] is Candida tropicalis CCM 8264, ATCC 750. The test can be described thus: Antifungal microdilution broth MIC, CT. The conditions noted are these: for MIC: 24 h, read-out: MIC visual detection, CT; for IC90: ATCC750|CCM8264, 24 h.
For test [12], the system named is Pseudomonas aeruginosa CCM 3955, ATCC 27853. The test can be described thus: Antibacterial microdilution broth MIC, PA. Format: cell-based.
Test [13] relates to Staphylococcus aureus CCM 4223, ATCC 29213. The test is described as follows: Antibacterial microdilution broth MIC, SA. Format: cell-based. Conditions: Staphylococcus aureus, internal quality controls, 24h.
The test system of test [14] is Escherichia coli CCM 3954, ATCC 25922. The test can be described thus: Antibacterial microdilution broth MIC, EC. Format: cell-based.
In test [15] the test system is Enterococcus faecalis CCM 4224, ATCC 29212. The test is described as follows: Antibacterial microdilution broth MIC, EF. It is filed as cell-based.
In test [16] the test system is Staphylococcus aureus subsp. aureus CCM 4750, ATCC 43300 (MRSA). The test can be described thus: Antibacterial microdilution broth MIC, MRSA. It is filed as cell-based. The conditions noted are these: Staphylococcus aureus, internal quality controls, 24h.
Test [17] deals with Staphylococcus epidermidis CCM 4418, ATCC 12228. The test can be described thus: Antibacterial microdilution broth MIC, SE. Format: cell-based.
Test [18] deals with Acinetobacter baumannii DSM 30007, ATCC 19606. The test can be described thus: Antibacterial microdilution broth MIC, ACI. Format: cell-based.
Setting [19] is: read-out: MIC Mtb H37Ra (μg/mL).

≈ marks a conversion by molar mass, not a printed value. Like-named read-outs stand apart in the source and are kept apart here.

Take `CO[C@H]1/C=C/O[C@@]2(C)Oc3c(C)c(O)c4c(O)c(c(/C=N/N5CCN(C)CC5)c(O)c4c3C2=O)NC(=O)/C(C)=C\C=C\[C@H](C)[C@H](O)[C@@H](C)[C@@H](O)[C@@H](C)[C@H](OC(C)=O)[C@@H]1C` [RIF, rifampicin, reference compound]: the MIC is 0.39 to 0.78 µg/mL (≈ 0.474 to 0.948 µM) in test [1], 0.0037 µM in [2] (read-out: MIC Mtb H37Ra (μM)), 0.00313 µg/mL in [2] (setting [19]) and 1.56 to 6.25 µg/mL (≈ 1.9 to 7.59 µM) in test [3].
Usually IC90 stands for the point of the concentration-response curve where the effect stands at 90%. On to `C[C@@H](c1ncncc1F)[C@](O)(Cn1cncn1)c1ccc(F)cc1F` [Voriconazole, voriconazole, reference compound], for which the MIC in test [4] is more than 16 µg/mL; in test [5], more than 16 µg/mL; in test [6], more than 16 µg/mL; in test [7] it was more than 16 µg/mL; in test [8], 1 µg/mL (≈ 2.86 µM); in [9], more than 16 µg/mL. In addition, the MIC in test [10] and in test [11] was more than 16 µg/mL throughout. Besides, the IC90 in test [4] (read-out: Voriconazole - IC90 spectrophotometric detection, TI) came to 1 µg/mL (≈ 2.86 µM); in [5] (read-out: Voriconazole - IC90 spectrophotometric detection, AFla) it was 2 µg/mL (≈ 5.73 µM); in [6] (read-out: Voriconazole - IC90 spectrophotometric detection, CA) it was 0.03 µg/mL (≈ 0.0859 µM); in [7] (read-out: Voriconazole - IC90 spectrophotometric detection, CK), 0.25 µg/mL (≈ 0.716 µM); in [8] (read-out: Voriconazole - IC90 spectrophotometric detection, AF), 0.25 µg/mL (≈ 0.716 µM); in test [9] (read-out: Voriconazole - IC90 spectrophotometric detection, CP), 0.03 µg/mL (≈ 0.0859 µM). For the same compound, the IC90 in [10] (read-out: Voriconazole - IC90 spectrophotometric detection, LC) was more than 16 µg/mL; in test [11] (read-out: Voriconazole - IC90 spectrophotometric detection, CT) it was 2 µg/mL (≈ 5.73 µM).
On to `O=C(O)c1cn(C2CC2)c2cc(N3CCNCC3)c(F)cc2c1=O` [CIP, ciprofloxacin, reference compound], for which the MIC fell in the range of 0.38 to 0.75 µM in [2] (read-out: MIC Mtb H37Ra (μM)) and 0.125 to 0.25 µg/mL in [2] (setting [19]).
On to `CNC(C)C1CCC(N)C(OC2C(N)CC(N)C(OC3OCC(C)(O)C(NC)C3O)C2O)O1` (stereo not shown) [Gentamicin, gentamicin, reference compound], for which the MIC in test [12] (internal quality controls, 24h, 95% inhibition of growth, 530 nm, read-out: MIC (µg/mL) PA, spectrophotometric detection) came out at 0.5 µg/mL (≈ 1.05 µM); in test [12] (read-out: MIC (µg/mL) PA, Gentamicin – spectrophotometric detection, internal quality controls, 24h), 0.5 µg/mL (≈ 1.05 µM); in [13] (read-out: MIC (µg/mL) SA, Gentamicin – spectrophotometric detection), 0.5 µg/mL (≈ 1.05 µM); in test [13] (95% inhibition of growth, 530 nm, read-out: MIC (µg/mL) SA, spectrophotometric detection), 1 µg/mL (≈ 2.09 µM); in [14] (internal quality controls, 24h, 95% inhibition of growth, 530 nm, read-out: MIC (µg/mL) EC, spectrophotometric detection), 1 µg/mL (≈ 2.09 µM); in test [14] (read-out: MIC (µg/mL) EC, Gentamicin – spectrophotometric detection, internal quality controls, 24h) it was 1 µg/mL (≈ 2.09 µM). Besides, the MIC was more than 8 µg/mL in test [15] (internal quality controls, 24h, 95% inhibition of growth, 530 nm, read-out: MIC (µg/mL) EF, spectrophotometric detection); more than 8 µg/mL in [15] (read-out: MIC (µg/mL) EF, Gentamicin – spectrophotometric detection, internal quality controls, 24h); more than 8 µg/mL in [16] (read-out: MIC (µg/mL) MRSA, Gentamicin – spectrophotometric detection); more than 8 µg/mL in test [16] (95% inhibition of growth, 530 nm, read-out: MIC (µg/mL) MRSA, spectrophotometric detection); 0.0625 µg/mL (≈ 0.131 µM) in test [17] (internal quality controls, 24h, 95% inhibition of growth, 530 nm, read-out: MIC (µg/mL) SE, spectrophotometric detection); 0.0625 µg/mL (≈ 0.131 µM) in test [17] (read-out: MIC (µg/mL) SE, Gentamicin – spectrophotometric detection, internal quality controls, 24h). Moreover, the MIC was determined as 8 µg/mL (≈ 16.8 µM) in test [18] (internal quality controls, 24h, 95% inhibition of growth, 530 nm, read-out: MIC (µg/mL) ACI, spectrophotometric detection) and 8 µg/mL (≈ 16.8 µM) in test [18] (read-out: MIC (µg/mL) ACI, Gentamicin – spectrophotometric detection, internal quality controls, 24h).
Take `C[C@@H]1[C@H](O)[C@@H](C)/C=C/C=C/C=C/C=C/C=C/C=C/C=C/[C@H](O[C@@H]2O[C@H](C)[C@@H](O)[C@H](N)[C@@H]2O)C[C@@H]2O[C@](O)(C[C@@H](O)C[C@@H](O)[C@H](O)CC[C@@H](O)C[C@@H](O)CC(=O)O[C@H]1C)C[C@H](O)[C@H]2C(=O)O` [Amphotericin B, amphotericin B, reference compound]: the IC90 is 1 µg/mL (≈ 1.08 µM) in test [4] (read-out: Amphotericin B - IC90 spectrophotometric detection, TI); 4 µg/mL (≈ 4.33 µM) in test [5] (read-out: Amphotericin B - IC90 spectrophotometric detection, AFla); 1 µg/mL (≈ 1.08 µM) in [6] (read-out: Amphotericin B - IC90 spectrophotometric detection, CA); 1 µg/mL (≈ 1.08 µM) in test [7] (read-out: Amphotericin B - IC90 spectrophotometric detection, CK); 4 µg/mL (≈ 4.33 µM) in [8] (read-out: Amphotericin B - IC90 spectrophotometric detection, AF); 0.5 µg/mL (≈ 0.541 µM) in test [9] (read-out: Amphotericin B - IC90 spectrophotometric detection, CP). Also, the IC90 in test [10] (read-out: Amphotericin B - IC90 spectrophotometric detection, LC) worked out at 1 µg/mL (≈ 1.08 µM); in test [11] (read-out: Amphotericin B - IC90 spectrophotometric detection, CT), 1 µg/mL (≈ 1.08 µM). The MIC stood at 1 µg/mL (≈ 1.08 µM) in test [4]; 4 µg/mL (≈ 4.33 µM) in test [5]; 1 µg/mL (≈ 1.08 µM) in [6]; 1 µg/mL (≈ 1.08 µM) in test [7]; 4 µg/mL (≈ 4.33 µM) in test [8]; 0.5 µg/mL (≈ 0.541 µM) in [9]. The MIC in test [10] and in test [11] was 1 µg/mL (≈ 1.08 µM) throughout.
